Measured values from PMC8145938, “Triphenilphosphonium Analogs of Chloramphenicol as Dual-Acting Antimicrobial and Antiproliferating Agents” (Antibiotics, 2021).
In brackets after ≈: the same amount, converted by molar mass. Read-outs that look alike come from different tables or passages of the source.

Tests used:
B. subtilis cells = assay: membrane potential by DiS-C3-(5) fluorescence; format: cell-based, Bacillus subtilis
Excerpt: Thus, we further examined the effect of CAM-Cn-TPP on the bacterial membrane potential of B. subtilis. In particular, the membrane potential of B. subtilis can be estimated from the fluorescence of the potential-sensitive dye, DiS-C3-(5), by measuring the changing fluorescence. The potential-dependent accumulation of the dye inside the bacterial cell causes quenching and leads to a decrease in fluorescence. Under the influence of substances that reduce the membrane potential, the dye is released and the fluorescence increases. […] Therefore, the action of CAM-Cn-TPP may have a double effect on bacterial cells and be based on the depolarization of the bacterial membrane by analogy with the mechanism of action of Cn-TPP [17].
The membrane potential of B. subtilis was estimated by measuring the fluorescence of the potential-dependent probe, DiS-C3-(5). B. subtilis from the overnight culture were seeded into a fresh LB medium, followed by growth for […], until reaching the optical density of 0.8 at 600 nm. Then, the bacteria were diluted 20-fold in a buffer containing 100 mM of KCl and 10 mM of Tris, pH 7.4. The fluorescence was measured at 670 nm (excitation at 630 nm) using a Fluorat-02-Panorama fluorimeter.

Staphylococcus aureus = assay: MIC determination, broth microdilution; format: cell-based
Excerpt: (§1) Standard laboratory strains of Bacillus subtilis subs. subtilis Cohn 1872, stains BR151, and 168, Staphylococcus aureus subsp. aureus Rosenbach 1884 strains JCM 2151 and entry MC#144 (from the Microorganisms Collection of the Moscow State University), Listeria monocytogenes Pirie 1940, Mycobacterium smegmatis Lehmann and Neumann 1899 (MC#377), and Escherichia coli Castellani and Chalmers 1919, strain JW5503 (with the deletion of tolC gene), which are resistant to the chloramphenicol strains, J53rif, C600rif/pIB55-1, C600rif/pIP162-1, and C600recA naI, were used.
(§2) S. aureus was grown in Bacto Tryptic Soy Broth, L. monocytogenes in Brain Heart Infusion Broth, and E. coli in LB. Bacterial cells were grown at 30 °C or 37 °C in the appropriate medium at a 140 rpm shaking frequency.
(§3) The MICs for CAM-Cn-TPP and Cn-TPP were determined by Mueller-Hinton broth microdilution, as recommended by CLSI in the Methods for Dilution Antimicrobial Susceptibility Tests for Bacteria that Grow Aerobically, Approved Standard, 9th ed., CLSI document M07-A9, using in-house-prepared panels. The compounds were diluted in a 96-well microtiter plate to final concentrations ranging from 0.5 to 360 μM in a 250-µL aliquot of the bacterial suspension, followed by incubation at 37 °C or 30 °C for 18 h. […] The bacterial growth was observed visually alongside OD measurements. The experiments were carried out in triplicate.

Listeria monocytogenes = assay: MIC determination, broth microdilution; format: cell-based
Excerpt: as §1, §2, §3

[1] = test system: Escherichia coli C600recA naI; assay: MIC determination, CHL resistant E. coli strains; format: cell-based; details: C600RECANAI
Excerpt: as §1, §3

Escherichia coli J53rif = assay: MIC determination, CHL resistant E. coli strains; format: cell-based
Excerpt: as §1, §3

[2] = test system: Escherichia coli C600rif/pIB55-1; assay: MIC determination, CHL resistant E. coli strains; format: cell-based
Excerpt: as §1, §3

[3] = test system: Escherichia coli C600rif/pIP162-1; assay: MIC determination, CHL resistant E. coli strains; format: cell-based
Excerpt: as §1, §3

[4] = test system: Rabbit Reticulocyte Lysate; assay: inhibition of eukaryotic in vitro translation (firefly luciferase); format: biochemical; details: 30 µM compound
Experimental: The next step was to test the new CAM-Cn-TPP compounds for their ability to inhibit the synthesis of the firefly luciferase reporter in vitro in a cell-free transcription-translation system based on an E. coli S30 extract.
The inhibition of eukaryotic translation was measured in Rabbit Reticulocyte Lysate (Promega) according to the manufacturer’s protocol. The reactions were programmed with 100 ng of Fluc mRNA and were carried out in 5 μL aliquots at 37 °C for 30 min. The activity of the in vitro synthesized luciferase was assessed using 5 μL of the substrate from the Steady-Glo Luciferase Assay System (Promega).

[5] = test system: MDA-MB-231 and BT-549 TNBC-sensitive and chemoresistant cells; assay: cancer cell proliferation / viability assay (MTT); format: cell-based; details: 3 days treatment
Excerpt: We recently provided in vivo [67] and in vitro [68] evidence that certain bactericidal antibiotics suppress tumor growth by inducing mitochondrial dysfunction. […] These cells differ from the corresponding parental cells and display a different response to the same microenvironmental stimuli, allowing them to reduce their proliferating rate and survive chemotherapeutic treatment. Here, we tested the abovementioned CAM-TPP derivatives on chemoresistant triple negative breast cancer (TNBC) cell models, as well as on corresponding CSC-like spheroid cells. We created several relevant models based on TNBC cell lines, particularly MDA-MB-231 and BT-549, to determine their resistance to cyclophosphamide. To create CSC-like cells, parental cells were resuspended in nonadherent conditions to form tumorspheres.
The MDA-MB-231 (RRID: CVCL_0062) and BT-549 (RRID: CVCL_1092) cell lines were purchased from ATCC and cultured in DMEM/F12 (Gibco, Life Technologies, 31330-038) supplemented with 10% FBS, 1% Pen-Strep, 1% Sodium Pyruvate, and 1% L-glutamine. Chemoresistant cell lines were established with continuous treatment for 6 months with the anticancer therapeutic agent, cyclophosphamide (Rcyclo), as previously described. These cell lines were authenticated using short tandem repeat (STR) profiling within the last three years. […] The relative numbers of tumourspheres per well were counted manually. […]
The survival assay was performed essentially as described earlier. […] The absorbance was measured at 570 nm in Bio Spec 1601, Shimadzu spectrometer. […] The results were expressed as the means ± SEM. The data were analyzed using the GraphPad Prism 7 PRIZM computer software under the license of the Statistical Department (Vall’ d Hebron Hospital, Barcelona, Spain).

[6] = Table 1, double-dilution method, read-out: MIC

With `O=C(CCCCCCCCCC[P+](c1ccccc1)(c1ccccc1)c1ccccc1)N[C@H](CO)[C@H](O)c1ccc([N+](=O)[O-])cc1` [CAM-C10-TPP, (N-{[(1R,2R)-1,3-dihydroxy-1-(4-nitrophenyl)propan-2-yl]amino}-11-oxoundecyl)(triphenyl)phosphonium bromide] the “effect on membrane potential” value (B. subtilis cells; 10 µM) was “caused a rapid drop in the membrane potential to the level observed with the channel-forming antibiotic gramicidin A”, the “effect on membrane potential” value (B. subtilis cells; submicromolar concentrations) was “caused a decrease in the membrane potential of B. subtilis on a minute time scale” and the MIC (Staphylococcus aureus) was 5 µM. It also gave an MIC (Listeria monocytogenes) of 6 µM, an MIC [1] of 107 µM and an MIC (Escherichia coli J53rif) of 110 µM. The MIC [2] was 90 µM, the MIC [3] was greater than 199 µM and the “effect on eukaryotic in vitro translation” value [4] was “had no effect on eukaryotic in vitro translation”. For the same compound, the “effect on proliferation of TNBC cell lines” value [5] was “significantly reduced the proliferation of TNBC cell lines”.

`O=C(CCCCCCCCCC[P+](c1ccccc1)(c1ccccc1)c1ccccc1)NCCCC(=O)N[C@H](CO)[C@H](O)c1ccc([N+](=O)[O-])cc1` [CAM-C14-TPP, N-[(1R,2R)-1,3-dihydroxy-1-(4-nitrophenyl)propan-2-yl]-4-(triphenyl)phosphoniumundecanamidobutamide bromide] was tested, and the “effect on membrane potential” value (B. subtilis cells; 10 µM) was “caused a rapid drop in the membrane potential to the level observed with the channel-forming antibiotic gramicidin A”, the “effect on membrane potential” value (B. subtilis cells; submicromolar concentrations) was “caused a decrease in the membrane potential of B. subtilis on a minute time scale” and the MIC (Staphylococcus aureus) was 12 µM. For the same compound, the MIC (Listeria monocytogenes) was 17 µM, the “effect on eukaryotic in vitro translation” value [4] was “had no effect on eukaryotic in vitro translation” and the “effect on proliferation of TNBC cell lines” value [5] was “significantly reduced the proliferation of TNBC cell lines”.

Compound `O=C(N[C@H](CO)[C@H](O)c1ccc([N+](=O)[O-])cc1)C(Cl)Cl` [CHL, chloramphenicol] has an MIC (Staphylococcus aureus; [6]) of 60 µM (≈ 19.4 µg/mL), an MIC (Listeria monocytogenes; [6]) of 25 µM (≈ 8.08 µg/mL) and an MIC [1] greater than 396 µM. The MIC (Escherichia coli J53rif) was greater than 396 µM, the MIC [2] was greater than 396 µM and the MIC [3] was greater than 396 µM.
